The NIST ThermoML archive (doi:10.1021/je700152c)
Numbers after ± are expanded uncertainties.

Assay: Molar enthalpy of transition or fusion
Conditions: Adiabatic calorimetry

Molar enthalpy of transition or fusion (Crystal 1): 5.16 ± 0.0574 kcal/mol
Molar enthalpy of transition or fusion (Crystal 2): 0.0464 ± 0.0478 kcal/mol
Molar enthalpy of transition or fusion (Metastable crystal): 4.76 ± 0.0621 kcal/mol
Compound: CCCCn1cc[n+](C)c1.Cc1ccc(S(=O)(=O)[O-])cc1 [1-butyl-3-methylimidazolium tosylate]
